Measurements as given in US9346757B2, “Pyridine derivatives and their use in the treatment of conditions associated with pathological thrombus formation” (SANOFI, priority 2012, dated 2016).

Assays:
Assay type in all cases: cell-based
[1] = target: T1, LPA receptor LPAR5 (Homo sapiens, UniProt Q9H1C0); experiment: FLIPR assay, intracellular Ca2+ release in human mast cell line HMC-1; conditions: human mast cell line HMC-1, LPA-stimulated Ca2+ release, compound added 10 minutes prior LPA
T1 construct: two cell lines were used with high LPAR5 expression, the human mast cell line HMC-1; endogenous in cells; host or cells: HMC-1 human mast cell line
T1 sequence (Q9H1C0 whole entry): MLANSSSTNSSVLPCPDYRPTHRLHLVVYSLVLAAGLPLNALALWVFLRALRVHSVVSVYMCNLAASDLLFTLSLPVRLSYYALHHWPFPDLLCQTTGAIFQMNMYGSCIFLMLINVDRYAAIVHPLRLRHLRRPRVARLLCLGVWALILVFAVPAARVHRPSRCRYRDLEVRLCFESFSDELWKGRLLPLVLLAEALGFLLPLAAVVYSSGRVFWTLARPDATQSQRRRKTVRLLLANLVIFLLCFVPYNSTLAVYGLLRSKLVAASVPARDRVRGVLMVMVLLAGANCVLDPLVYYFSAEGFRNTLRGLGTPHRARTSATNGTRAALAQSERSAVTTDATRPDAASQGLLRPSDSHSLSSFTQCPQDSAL
Source text: (§1) B) Use of the Fluorometric Imaging Plate Reader (FLIPR) Assay for the Determination of Intracellular Ca^2+ Release in Human Mast Cell Line HMC-1 and the Murine Microglia Cell Line BV-2
(§2) The ability of the compounds of the formula I to inhibit or bind the LPA receptor LPAR5 can be assessed by determining the intracellular Ca^2+ release in human or animal cells. For the analysis of activating potential of LPA and the inhibitory effects of compounds of the formula I two cell lines were used with high LPAR5 expression, the human mast cell line HMC-1 and the murine microglia cell line BV-2 (FIGS. 1 and 2). For the FLIPR assay using human mast cells in a 96-well-format, HMC-1 suspension cells from flask culture were harvested, resuspended and counted. 14×10^6 HMC-1 cells were transferred into a new 50 ml tube, centrifuged for 3 minutes at 540×g. The resulting cell pellet at the bottom of the tube was resuspended with 15 ml loading buffer (loading buffer contained HBSS buffer (pH 7.4), 0.1% BSA (bovine serum albumin), 2 μM FLUO-4 dye; HBSS buffer (pH 7.4) contained 1×HBSS, 20 mM HEPES, 0.01% Pluronic F-127, 2.5 mM Probenicid).
Cells in loading buffer were incubated for 45-60 minutes at 37° C. After incubation cells were centrifuged for 3 minutes at 540×g and resuspended with 21 ml of HBSS buffer (pH 7.4). Each well of a poly-D-lysine coated 96-well-plate was filled with 150 μl cell solution, an equivalent of 100 000 cells/well. The 96-well-plate was centifuged for 2 minutes at 100×g (without brake) prior a recovery time of 30 minutes at 37° C. After this procedure cells were stimulated with LPA (in HBSS pH 7.4 and 0.1% BSA) to determine the EC50 of LPA in HMC-1 cells. For the determination of the inhibitory effect of compounds of the formula I, test compounds were added to the cells in the 96-well-plate 10 minutes prior the addition of LPA. Results of the assay are expressed as % activation, and are calculated using maximum peak of activation (Amax). […]

[2] = target: T2, LPA receptor LPAR5 (Mus musculus, UniProt Q149R9); experiment: FLIPR assay, intracellular Ca2+ release in murine microglia cell line BV-2; conditions: murine microglia cell line BV-2, LPA-stimulated Ca2+ release, compound added 10 minutes prior LPA
T2 construct: two cell lines were used with high LPAR5 expression, the human mast cell line HMC-1 and the murine microglia cell line BV-2; endogenous in cells; host or cells: BV-2 murine microglia cell line
T2 sequence (Q149R9 whole entry): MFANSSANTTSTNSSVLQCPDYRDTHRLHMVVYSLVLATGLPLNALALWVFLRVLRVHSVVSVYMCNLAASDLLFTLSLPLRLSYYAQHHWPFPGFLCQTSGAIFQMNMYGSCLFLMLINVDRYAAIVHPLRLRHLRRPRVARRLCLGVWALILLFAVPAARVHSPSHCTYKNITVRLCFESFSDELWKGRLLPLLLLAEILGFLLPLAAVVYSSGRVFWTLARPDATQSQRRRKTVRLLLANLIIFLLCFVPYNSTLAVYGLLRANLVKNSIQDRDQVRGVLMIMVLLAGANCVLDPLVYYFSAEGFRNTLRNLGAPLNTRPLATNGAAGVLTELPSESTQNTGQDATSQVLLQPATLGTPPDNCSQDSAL
Source text: as §1, §2
Cells in loading buffer were incubated for 45-60 minutes at 37° C. […] Results of the assay are expressed as % activation, and are calculated using maximum peak of activation (Amax). […]

[3] = target: T3, platelet LPA receptor LPAR5 (Homo sapiens, UniProt Q9H1C0); experiment: Aggregation assay for washed human blood platelets (LPA-induced); conditions: reduction of maximal aggregation, 5 min preincubation at 37° C.
T3 construct: the cellular pellet, consisting of human blood platelets was then dissolved in 10 ml buffer T; endogenous in cells; host or cells: washed human blood platelets from healthy volunteers
T3 sequence (Q9H1C0 whole entry): as the sequence (Q9H1C0 whole entry) above
Experimental: A) Aggregation Assay for Washed Human Blood Platelets (Thrombocytes)
Whole blood was collected from healthy volunteers using 3×20 ml syringes containing each 1/10 volume of buffered citrate. The anticoagulated whole blood was transferred into 50 ml polypropylene conical tubes (30 ml per tube). The tubes were centrifuged for 10 minutes at 150×g at room temperature without using the centrifuge brake. This procedure results in a lower phase of cellular components and a supernatant (upper phase) of platelet rich plasma (PRP). The PRP phase was collected from each tube and pooled for each donor. […] The platelet concentration was determined using a ABX Micros 60 counter. […] Platelet concentration in this solution was determined and buffer T was added to obtain a final concentration of 3.5×10^5 platelets per ml.
After 10 minutes at room temperature, 1 μl PGI2 per ml platelet solution was added and distributed into new 10 ml tubes. […] Aggregation was measured over 6 minutes at 37° C. with 1200 rpm (revolutions per minute) stirring. Results of the assay are expressed as % activation, and are calculated using maximum aggregation (Tmax) or area under curve (AUC) of the absorbance over 6 minutes. The inhibitory effect (IC50) of the test compounds was determined as the reduction of the maximal aggregation. […]

Structure (SMILES) | IC50 [1] | IC50 [2] | IC50 [3]
Cc1nc(-c2ccc(Cl)cc2)c(-c2ccc(Cl)cc2Cl)cc1COC(C)(C)C(=O)NCCCC(=O)O [Example 15, 4-{2-[6-(4-Chloro-phenyl)-5-(2,4-dichloro-phenyl)-2-methyl-pyridin-3-ylmethoxy]-2-methyl-propionylamino}-butyric acid] | 1.8 µM | – | –
Cc1nc(-c2ccc(Cl)cc2)c(-c2ccc(Cl)cc2Cl)cc1COC(C)(C)C(=O)NCc1ccc(C(=O)O)cc1 [Example 14, 4-({2-[6-(4-Chloro-phenyl)-5-(2,4-dichloro-phenyl)-2-methyl-pyridin-3-ylmethoxy]-2-methyl-propionylamino}-methyl)-benzoic acid] | 0.13 µM | 3.2 µM | 3.6 µM
Cc1nc(-c2ccc(C(F)(F)F)cc2)c(-c2ccc(Cl)cc2Cl)cc1COC(C)C(=O)Nc1ccc(C(=O)O)cc1 (centres unmarked) [Example 1, 4-{2-[5-(2,4-Dichloro-phenyl)-2-methyl-6-(4-trifluoromethyl-phenyl)-pyridin-3-ylmethoxy]-propionylamino}-benzoic acid] | 3.7 µM | – | –
